Patent US11498899B2, “Nitrone herbicides” (FMC Corporation, priority 2016, dated 2022)

Experiments:
rice (Oryza sativa) = experiment: Test B flooded paddy test, visual rating 0-100 (0 no effect, 100 complete control); conditions: Flood, 250 g ai/ha, applied to paddy water, rated after 13 to 15 days
[1] = test system: ducksalad (Heteranthera limosa); experiment: Test B flooded paddy test, visual rating 0-100; conditions: Flood, 250 g ai/ha, applied to paddy water, rated after 13 to 15 days
[2] = test system: barnyardgrass (Echinochloa crus-galli); experiment: Test B flooded paddy test, visual rating 0-100; conditions: Flood, 250 g ai/ha, applied to paddy water, rated after 13 to 15 days
[3] = test system: barnyardgrass (Echinochloa crus-galli); experiment: Test A preemergence, visual injury rating 0-100 (0 no effect, 100 complete control); assay type: in vivo
[4] = test system: wheat (Triticum aestivum); experiment: Test A postemergence, visual injury rating 0-100; assay type: in vivo; conditions: 0 to 100 scale
[5] = test system: ragweed (common ragweed, Ambrosia elatior); experiment: Test A postemergence, visual injury rating 0-100; assay type: in vivo; conditions: 0 to 100 scale
[6] = test system: ryegrass, Italian (Italian ryegrass, Lolium multiflorum); experiment: Test A postemergence, visual injury rating 0-100; assay type: in vivo; conditions: 0 to 100 scale
[7] = test system: blackgrass (Alopecurus myosuroides); experiment: Test A postemergence, visual injury rating 0-100; assay type: in vivo; conditions: 0 to 100 scale
corn (Zea mays) = experiment: Test A postemergence, visual injury rating 0-100; assay type: in vivo; conditions: 0 to 100 scale
[8] = test system: foxtail, giant (giant foxtail, Setaria faberii); experiment: Test A postemergence, visual injury rating 0-100; assay type: in vivo; conditions: 0 to 100 scale
[9] = test system: barnyardgrass (Echinochloa crus-galli); experiment: Test A postemergence, visual injury rating 0-100; assay type: in vivo; conditions: 0 to 100 scale
kochia (Kochia scoparia) [10] = experiment: Test A postemergence, visual injury rating 0-100; assay type: in vivo; conditions: 0 to 100 scale
[11] = test system: galium (catchweed bedstraw, Galium aparine); experiment: Test A postemergence, visual injury rating 0-100; assay type: in vivo; conditions: 0 to 100 scale
[12] = test system: pigweed (Amaranthus retroflexus); experiment: Test A postemergence, visual injury rating 0-100; assay type: in vivo; conditions: 0 to 100 scale
[13] = test system: ragweed (common ragweed, Ambrosia elatior); experiment: Test A preemergence, visual injury rating 0-100; assay type: in vivo
[14] = test system: ryegrass, Italian (Italian ryegrass, Lolium multiflorum); experiment: Test A preemergence, visual injury rating 0-100; assay type: in vivo
[15] = test system: foxtail, giant (giant foxtail, Setaria faberii); experiment: Test A preemergence, visual injury rating 0-100; assay type: in vivo
kochia (Kochia scoparia) [16] = experiment: Test A preemergence, visual injury rating 0-100; assay type: in vivo
[17] = test system: pigweed (Amaranthus retroflexus); experiment: Test A preemergence, visual injury rating 0-100; assay type: in vivo
[18] = 125 g ai/ha, 0 to 100 scale (0 no effect, 100 complete control), approx. 10 days

CC1=[N+]([O-])[C@H](C(=O)Nc2cccc(F)c2F)[C@@H](c2ccc(C(F)F)cc2)C1 (relative stereo) [Compound 93, rel-(2S,3R)-3-(4-Difluoromethyl)phenyl)-N-(2,3-difluorophenyl) 3,4-dihydro-5-methyl-2H-pyrrole-2-carboxamide 1-oxide]
Rice plant response rating (0 to 100 scale) (rice (Oryza sativa)): 15
Ducksalad plant response rating (0 to 100 scale) [1]: 100
Barnyardgrass plant response rating (0 to 100 scale) [2]: 70
Barnyardgrass plant response rating (0 to 100 scale) ([3]; 125 g ai/ha): 90
Barnyardgrass plant response rating (0 to 100 scale) ([3]; 500 g ai/ha): 90
Wheat plant response rating ([4]; 125 g ai/ha): 60
Wheat plant response rating ([4]; 500 g ai/ha): 80
Ragweed plant response rating ([5]; 125 g ai/ha): 0
Ragweed plant response rating ([5]; 500 g ai/ha): 70
Ryegrass, Italian plant response rating ([6]; 125 g ai/ha): 60
Ryegrass, Italian plant response rating ([6]; 500 g ai/ha): 70
Blackgrass plant response rating ([7]; 125 g ai/ha): 60
Blackgrass plant response rating ([7]; 500 g ai/ha): 70
Corn plant response rating (corn (Zea mays); 125 g ai/ha): 60
Corn plant response rating (corn (Zea mays); 500 g ai/ha): 90
Foxtail, Giant plant response rating ([8]; 125 g ai/ha): 80
Foxtail, Giant plant response rating ([8]; 500 g ai/ha): 90
Barnyardgrass plant response rating ([9]; 125 g ai/ha): 70
Barnyardgrass plant response rating ([9]; 500 g ai/ha): 90
Kochia plant response rating (kochia (Kochia scoparia) [10]; 125 g ai/ha): 0
Kochia plant response rating (kochia (Kochia scoparia) [10]; 500 g ai/ha): 80
Galium plant response rating ([11]; 125 g ai/ha): 60
Galium plant response rating ([11]; 500 g ai/ha): 70
Pigweed plant response rating ([12]; 125 g ai/ha): 50
Pigweed plant response rating ([12]; 500 g ai/ha): 80
Ragweed plant response rating (0 to 100 scale) ([13]; 125 g ai/ha): 70
Ragweed plant response rating (0 to 100 scale) ([13]; 500 g ai/ha): 90
Ryegrass, Italian plant response rating (0 to 100 scale) ([14]; 125 g ai/ha): 70
Ryegrass, Italian plant response rating (0 to 100 scale) ([14]; 500 g ai/ha): 90
Foxtail, Giant plant response rating (0 to 100 scale) ([15]; 125 g ai/ha): 90
Foxtail, Giant plant response rating (0 to 100 scale) ([15]; 500 g ai/ha): 90
Kochia plant response rating (0 to 100 scale) (kochia (Kochia scoparia) [16]; 125 g ai/ha): 30
Kochia plant response rating (0 to 100 scale) (kochia (Kochia scoparia) [16]; 500 g ai/ha): 80
Pigweed plant response rating (0 to 100 scale) ([17]; 125 g ai/ha): 80
Pigweed plant response rating (0 to 100 scale) ([17]; 500 g ai/ha): 90

CC1=[N+]([O-])C(C(=O)Nc2cccc(F)c2F)C(c2cccc(Cl)c2F)C1 (stereo not shown) [Compound 99]
Rice plant response rating (0 to 100 scale) (rice (Oryza sativa)): 0
Ducksalad plant response rating (0 to 100 scale) [1]: 85
Barnyardgrass plant response rating (0 to 100 scale) [2]: 60
Barnyardgrass plant response rating (0 to 100 scale) ([3]; 125 g ai/ha): 90
Barnyardgrass plant response rating (0 to 100 scale) ([3]; 500 g ai/ha): 90
Wheat plant response rating ([4]; 125 g ai/ha): 0
Wheat plant response rating ([4]; 500 g ai/ha): 50
Ragweed plant response rating ([5]; 125 g ai/ha): 0
Ragweed plant response rating ([5]; 500 g ai/ha): 30
Ryegrass, Italian plant response rating ([6]; 125 g ai/ha): 30
Ryegrass, Italian plant response rating ([6]; 500 g ai/ha): 70
Blackgrass plant response rating ([7]; 125 g ai/ha): 50
Blackgrass plant response rating ([7]; 500 g ai/ha): 70
Corn plant response rating (corn (Zea mays); 125 g ai/ha): 0
Corn plant response rating (corn (Zea mays); 500 g ai/ha): 40
Foxtail, Giant plant response rating ([8]; 125 g ai/ha): 60
Foxtail, Giant plant response rating ([8]; 500 g ai/ha): 90
Barnyardgrass plant response rating ([9]; 125 g ai/ha): 90
Barnyardgrass plant response rating ([9]; 500 g ai/ha): 90
Kochia plant response rating (kochia (Kochia scoparia) [10]; 125 g ai/ha): 0
Kochia plant response rating (kochia (Kochia scoparia) [10]; 500 g ai/ha): 50
Galium plant response rating ([11]; 125 g ai/ha): 30
Galium plant response rating ([11]; 500 g ai/ha): 50
Pigweed plant response rating ([12]; 125 g ai/ha): 0
Pigweed plant response rating ([12]; 500 g ai/ha): 40
Ragweed plant response rating (0 to 100 scale) ([13]; 125 g ai/ha): 10
Ragweed plant response rating (0 to 100 scale) ([13]; 500 g ai/ha): 80
Ryegrass, Italian plant response rating (0 to 100 scale) ([14]; 125 g ai/ha): 50
Ryegrass, Italian plant response rating (0 to 100 scale) ([14]; 500 g ai/ha): 70
Foxtail, Giant plant response rating (0 to 100 scale) ([15]; 125 g ai/ha): 90
Foxtail, Giant plant response rating (0 to 100 scale) ([15]; 500 g ai/ha): 90
Kochia plant response rating (0 to 100 scale) (kochia (Kochia scoparia) [16]; 125 g ai/ha): 10
Kochia plant response rating (0 to 100 scale) (kochia (Kochia scoparia) [16]; 500 g ai/ha): 70
Pigweed plant response rating (0 to 100 scale) ([17]; 125 g ai/ha): 0
Pigweed plant response rating (0 to 100 scale) ([17]; 500 g ai/ha): 60

CC1=[N+]([O-])C(C(=O)Nc2cccc(F)c2F)C(c2ccc(=O)n(Cc3ccc(Cl)cc3)c2)C1 (racemic) [Compound 119]
Rice plant response rating (0 to 100 scale) (rice (Oryza sativa)): 0
Ducksalad plant response rating (0 to 100 scale) [1]: 0
Barnyardgrass plant response rating (0 to 100 scale) [2]: 0
Barnyardgrass plant response rating [3, 18]: 0
Barnyardgrass plant response rating (0 to 100 scale) ([3]; 500 g ai/ha): 0
Wheat plant response rating ([4]; 125 g ai/ha): 0
Wheat plant response rating ([4]; 500 g ai/ha): 0
Ragweed plant response rating ([5]; 125 g ai/ha): 0
Ragweed plant response rating ([5]; 500 g ai/ha): 0
Ryegrass, Italian plant response rating ([6]; 125 g ai/ha): 10
Ryegrass, Italian plant response rating ([6]; 500 g ai/ha): 20
Blackgrass plant response rating ([7]; 125 g ai/ha): 0
Blackgrass plant response rating ([7]; 500 g ai/ha): 0
Corn plant response rating (corn (Zea mays); 125 g ai/ha): 0
Corn plant response rating (corn (Zea mays); 500 g ai/ha): 0
Foxtail, Giant plant response rating ([8]; 125 g ai/ha): 0
Foxtail, Giant plant response rating ([8]; 500 g ai/ha): 0
Barnyardgrass plant response rating ([9]; 125 g ai/ha): 0
Barnyardgrass plant response rating ([9]; 500 g ai/ha): 0
Kochia plant response rating (kochia (Kochia scoparia) [10]; 125 g ai/ha): 0
Kochia plant response rating (kochia (Kochia scoparia) [10]; 500 g ai/ha): 0
Galium plant response rating ([11]; 125 g ai/ha): 0
Galium plant response rating ([11]; 500 g ai/ha): 0
Pigweed plant response rating ([12]; 125 g ai/ha): 0
Pigweed plant response rating ([12]; 500 g ai/ha): 0
Ragweed plant response rating [13, 18]: 0
Ryegrass, Italian plant response rating [14, 18]: 0
Ryegrass, Italian plant response rating (0 to 100 scale) ([14]; 500 g ai/ha): 0
Foxtail, Giant plant response rating [15, 18]: 0
Foxtail, Giant plant response rating (0 to 100 scale) ([15]; 500 g ai/ha): 0
Kochia plant response rating (kochia (Kochia scoparia) [16]; [18]): 0
Kochia plant response rating (0 to 100 scale) (kochia (Kochia scoparia) [16]; 500 g ai/ha): 0
Pigweed plant response rating [17, 18]: 0
Pigweed plant response rating (0 to 100 scale) ([17]; 500 g ai/ha): 0

CC1=[N+]([O-])C(C(=O)Nc2cccc(F)c2F)C(c2cccc(Oc3ccc(F)cc3)c2)C1 (racemic) [Compound 58]
Rice plant response rating (0 to 100 scale) (rice (Oryza sativa)): 0
Ducksalad plant response rating (0 to 100 scale) [1]: 0
Barnyardgrass plant response rating (0 to 100 scale) [2]: 0
Barnyardgrass plant response rating (0 to 100 scale) ([3]; 125 g ai/ha): 10
Barnyardgrass plant response rating (0 to 100 scale) ([3]; 500 g ai/ha): 90
Wheat plant response rating ([4]; 125 g ai/ha): 10
Wheat plant response rating ([4]; 500 g ai/ha): 20
Ragweed plant response rating ([5]; 125 g ai/ha): 0
Ragweed plant response rating ([5]; 500 g ai/ha): 0
Ryegrass, Italian plant response rating ([6]; 125 g ai/ha): 20
Ryegrass, Italian plant response rating ([6]; 500 g ai/ha): 50
Blackgrass plant response rating ([7]; 125 g ai/ha): 20
Blackgrass plant response rating ([7]; 500 g ai/ha): 70
Corn plant response rating (corn (Zea mays); 125 g ai/ha): 0
Corn plant response rating (corn (Zea mays); 500 g ai/ha): 40
Foxtail, Giant plant response rating ([8]; 125 g ai/ha): 30
Foxtail, Giant plant response rating ([8]; 500 g ai/ha): 70
Barnyardgrass plant response rating ([9]; 125 g ai/ha): 10
Barnyardgrass plant response rating ([9]; 500 g ai/ha): 30
Kochia plant response rating (kochia (Kochia scoparia) [10]; 125 g ai/ha): 0
Kochia plant response rating (kochia (Kochia scoparia) [10]; 500 g ai/ha): 20
Galium plant response rating ([11]; 125 g ai/ha): 30
Galium plant response rating ([11]; 500 g ai/ha): 50
Pigweed plant response rating ([12]; 125 g ai/ha): 0
Pigweed plant response rating ([12]; 500 g ai/ha): 30
Ragweed plant response rating (0 to 100 scale) ([13]; 125 g ai/ha): 0
Ragweed plant response rating (0 to 100 scale) ([13]; 500 g ai/ha): 90
Ryegrass, Italian plant response rating (0 to 100 scale) ([14]; 125 g ai/ha): 10
Ryegrass, Italian plant response rating (0 to 100 scale) ([14]; 500 g ai/ha): 80
Foxtail, Giant plant response rating (0 to 100 scale) ([15]; 125 g ai/ha): 40
Foxtail, Giant plant response rating (0 to 100 scale) ([15]; 500 g ai/ha): 90
Kochia plant response rating (0 to 100 scale) (kochia (Kochia scoparia) [16]; 125 g ai/ha): 0
Kochia plant response rating (0 to 100 scale) (kochia (Kochia scoparia) [16]; 500 g ai/ha): 0
Pigweed plant response rating (0 to 100 scale) ([17]; 125 g ai/ha): 0
Pigweed plant response rating (0 to 100 scale) ([17]; 500 g ai/ha): 0
